Consider 7 compounds from ChEMBL document CHEMBL4417633, “Inhibitory polypeptides specific to WNT inhibitors” (2017).

Test [1] deals with T1, Dickkopf WNT-signaling pathway inhibitor 1 (Rattus norvegicus, UniProt A6I0Z0).
T1 sequence (A6I0Z0 whole entry): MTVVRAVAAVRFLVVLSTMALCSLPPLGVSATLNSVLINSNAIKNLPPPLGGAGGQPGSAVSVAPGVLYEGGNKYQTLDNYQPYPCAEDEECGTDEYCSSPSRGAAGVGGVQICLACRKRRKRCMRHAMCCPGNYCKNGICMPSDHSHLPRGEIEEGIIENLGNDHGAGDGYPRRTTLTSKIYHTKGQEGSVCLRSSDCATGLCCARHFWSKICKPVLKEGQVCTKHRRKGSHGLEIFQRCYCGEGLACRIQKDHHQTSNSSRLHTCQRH
In words: Inhibition of biotin-labeled rat recombinant DKK1 assessed as reduction in DKK1 interaction with LRP-6/Fc incubated overnight by chemiluminescence based Alpha-screen assay.

Test [2] deals with T2, Dickkopf-related protein 1 (Homo sapiens, UniProt O94907).
T2 sequence (O94907 whole entry): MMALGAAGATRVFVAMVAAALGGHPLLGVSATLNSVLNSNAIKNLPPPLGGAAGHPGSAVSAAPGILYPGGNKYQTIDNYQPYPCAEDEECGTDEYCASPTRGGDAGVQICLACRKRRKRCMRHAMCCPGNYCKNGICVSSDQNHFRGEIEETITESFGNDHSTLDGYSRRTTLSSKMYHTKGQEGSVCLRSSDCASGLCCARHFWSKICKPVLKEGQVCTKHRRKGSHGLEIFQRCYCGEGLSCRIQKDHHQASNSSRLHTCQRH
In words: Inhibition of biotin-labeled human recombinant DKK1 assessed as reduction in DKK1 interaction with LRP-6/Fc incubated overnight by chemiluminescence based Alpha-screen assay.

Where a SMILES comes first, the peptide text is derived from it. A value given as a limit tells only on which side of the number the result lay.

For the compound `CSCC[C@H](NC(=O)[C@@H]1CCCN1C(=O)[C@H](Cc1ccc(O)cc1)NC(=O)[C@H](CS)NC(=O)[C@H](Cc1cnc[nH]1)NC(=O)[C@H](CC(N)=O)NC(=O)[C@H](Cc1cnc[nH]1)NC(=O)[C@H](Cc1ccc(O)cc1)NC(=O)[C@H](CCCNC(=N)N)NC(=O)[C@H](CS)NC(=O)[C@H](CCC(N)=O)NC(=O)[C@H](Cc1ccccc1)NC(=O)[C@H](Cc1ccc(O)cc1)NC(=O)[C@H](CO)NC(=O)[C@@H](NC(=O)[C@@H]1CCCN1C(=O)[C@@H](N)CS)C(C)C)C(=O)N[C@@H](CCC(=O)O)C(=O)N[C@@H](Cc1c[nH]c2ccccc12)C(=O)N[C@@H](CCCNC(=N)N)C(=O)N[C@@H](CS)C(=O)N[C@@H](CC(=O)O)C(=O)NCC(=O)N[C@@H](Cc1ccccc1)C(=O)N1CCC[C@H]1C(=O)N[C@@H](CC(=O)O)C(=O)N[C@@H](CS)C(=O)N[C@@H](CCC(=O)O)C(=O)N[C@@H](CC(=O)O)C(=O)N[C@@H](C)C(=O)N[C@@H](CO)C(=O)N[C@@H](CC(=O)O)C(=O)N[C@@H](CCC(=O)O)C(=O)N[C@@H](CCC(=O)O)C(=O)NCC(=O)N[C@@H](CS)C(=O)N1CCC[C@H]1C(=O)N[C@@H](Cc1ccc(O)cc1)C(=O)N[C@@H](CCCNC(=N)N)C(=O)N[C@H](C(=O)O)[C@@H](C)O` (H-CPVSYFQCRYHNHCYPMEWRCDGFPDCEDASDEEGCPYRT-OH), the concentration for half-maximal inhibition (IC50) in test [1] and in test [2] was ≤ 1 nM each time.

On to `CSCC[C@H](NC(=O)[C@H](CS)NC(=O)[C@H](CCC(N)=O)NC(=O)[C@H](Cc1ccccc1)NC(=O)[C@H](Cc1ccc(O)cc1)NC(=O)[C@H](CO)NC(=O)[C@H](C)NC(=O)[C@@H]1CCCN1C(=O)[C@@H](N)CS)C(=O)N[C@@H](CC(N)=O)C(=O)N[C@@H](Cc1cnc[nH]1)C(=O)N[C@@H](CC(N)=O)C(=O)N[C@@H](Cc1cnc[nH]1)C(=O)N[C@@H](CS)C(=O)N[C@@H](Cc1ccc(O)cc1)C(=O)N1CCC[C@H]1C(=O)N[C@@H](CCSC)C(=O)N[C@@H](CCC(=O)O)C(=O)N[C@@H](Cc1c[nH]c2ccccc12)C(=O)N[C@@H](CCCNC(=N)N)C(=O)N[C@@H](CS)C(=O)N[C@@H](CC(=O)O)C(=O)NCC(=O)N[C@@H](Cc1ccccc1)C(=O)N1CCC[C@H]1C(=O)N[C@@H](CC(=O)O)C(=O)N[C@@H](CS)C(=O)N[C@@H](CCC(=O)O)C(=O)N[C@@H](CC(=O)O)C(=O)NCC(=O)N[C@@H](CO)C(=O)N[C@@H](CC(=O)O)C(=O)N[C@@H](CCC(=O)O)C(=O)N[C@@H](CCCCN)C(=O)NCC(=O)N[C@@H](CS)C(=O)N1CCC[C@H]1C(=O)N[C@@H](Cc1ccc(O)cc1)C(=O)N[C@@H](CCCNC(=N)N)C(=O)N[C@H](C(=O)O)[C@@H](C)O` (H-CPASYFQCMNHNHCYPMEWRCDGFPDCEDGSDEKGCPYRT-OH), for which the half-maximal inhibitory concentration (IC50) in test [1] and in test [2] was ≤ 1 nM throughout.

Consider `CSCC[C@H](NC(=O)[C@H](Cc1ccccc1)NC(=O)[C@H](CCC(=O)O)NC(=O)[C@H](Cc1ccc(O)cc1)NC(=O)[C@H](CO)NC(=O)[C@@H]1CCCN1C(=O)[C@@H](N)CS)C(=O)N[C@@H](CS)C(=O)N[C@@H](C)C(=O)N[C@@H](CC(=O)O)C(=O)N[C@@H](CCCCN)C(=O)N[C@@H](CCSC)C(=O)N[C@@H](CS)C(=O)N[C@@H](Cc1ccccc1)C(=O)N1CCC[C@H]1C(=O)N[C@@H](CC(C)C)C(=O)N[C@@H](CO)C(=O)N[C@@H](Cc1ccccc1)C(=O)N[C@@H](CC(C)C)C(=O)N[C@@H](CS)C(=O)N[C@@H](CC(=O)O)C(=O)NCC(=O)N[C@@H](CCC(=O)O)C(=O)N[C@@H](CC(N)=O)C(=O)N[C@@H](CC(=O)O)C(=O)N[C@@H](CS)C(=O)N[C@@H](CCC(=O)O)C(=O)N[C@@H](CC(=O)O)C(=O)NCC(=O)N[C@@H](CO)C(=O)N[C@@H](CC(=O)O)C(=O)N[C@@H](CCC(=O)O)C(=O)N[C@@H](CC(=O)O)C(=O)N[C@@H](Cc1ccc(O)cc1)C(=O)N[C@@H](CS)C(=O)N1CCC[C@H]1C(=O)N[C@@H](CO)C(=O)N[C@@H](CCCNC(=N)N)C(=O)N[C@H](C(=O)O)[C@@H](C)O` (H-CPSYEFMCADKMCFPLSFLCDGENDCEDGSDEDYCPSRT-OH), for which the concentration for half-maximal inhibition (IC50) in test [1] and in test [2] was ≤ 1 nM each time.

For `CC[C@H](C)[C@H](NC(=O)[C@H](CCC(=O)O)NC(=O)[C@H](CC(=O)O)NC(=O)[C@H](CO)NC(=O)CNC(=O)[C@H](CC(=O)O)NC(=O)[C@@H](NC(=O)[C@H](CS)NC(=O)[C@H](CC(=O)O)NC(=O)[C@H](Cc1cnc[nH]1)NC(=O)[C@H](Cc1ccccc1)NC(=O)CNC(=O)[C@H](CC(=O)O)NC(=O)[C@H](CS)NC(=O)[C@H](CCCNC(=N)N)NC(=O)[C@H](Cc1c[nH]c2ccccc12)NC(=O)[C@H](CCC(=O)O)NC(=O)[C@H](CCSC)NC(=O)[C@@H]1CCCN1C(=O)[C@H](Cc1ccc(O)cc1)NC(=O)[C@H](CS)NC(=O)[C@H](Cc1cnc[nH]1)NC(=O)[C@H](CC(N)=O)NC(=O)[C@H](Cc1cnc[nH]1)NC(=O)[C@H](Cc1cnc[nH]1)NC(=O)[C@H](CCCNC(=N)N)NC(=O)[C@H](CS)NC(=O)[C@H](CCC(N)=O)NC(=O)[C@H](Cc1ccccc1)NC(=O)[C@H](Cc1ccc(O)cc1)NC(=O)[C@H](CO)NC(=O)[C@H](C)NC(=O)[C@@H]1CCCN1C(=O)[C@@H](N)CS)C(C)C)C(=O)NCC(=O)N[C@@H](CS)C(=O)N1CCC[C@H]1C(=O)N[C@@H](Cc1ccc(O)cc1)C(=O)N[C@@H](CCCNC(=N)N)C(=O)N[C@H](C(=O)O)[C@@H](C)O` (H-CPASYFQCRHHNHCYPMEWRCDGFHDCVDGSDEIGCPYRT-OH), the IC50 in test [1] and in test [2] was ≤ 1 nM each time.

As to `CSCC[C@H](NC(=O)[C@@H]1CCCN1C(=O)[C@H](Cc1ccc(O)cc1)NC(=O)[C@H](CS)NC(=O)[C@H](Cc1cnc[nH]1)NC(=O)[C@H](CC(N)=O)NC(=O)[C@H](Cc1ccc(O)cc1)NC(=O)[C@H](CC(N)=O)NC(=O)CNC(=O)[C@H](CS)NC(=O)[C@H](CCC(N)=O)NC(=O)[C@H](Cc1ccccc1)NC(=O)[C@H](Cc1ccc(O)cc1)NC(=O)[C@H](CO)NC(=O)[C@H](C)NC(=O)[C@@H]1CCCN1C(=O)[C@@H](N)CS)C(=O)N[C@@H](CCC(=O)O)C(=O)N[C@@H](Cc1c[nH]c2ccccc12)C(=O)N[C@@H](CCCNC(=N)N)C(=O)N[C@@H](CS)C(=O)N[C@@H](CC(=O)O)C(=O)NCC(=O)N[C@@H](Cc1ccccc1)C(=O)N[C@@H](CC(C)C)C(=O)N[C@@H](CC(=O)O)C(=O)N[C@@H](CS)C(=O)N[C@H](C(=O)N[C@@H](CC(=O)O)C(=O)NCC(=O)N[C@@H](CO)C(=O)N[C@@H](CC(=O)O)C(=O)N[C@@H](CCC(=O)O)C(=O)N[C@@H](CCCCN)C(=O)NCC(=O)N[C@@H](CS)C(=O)N1CCC[C@H]1C(=O)N[C@@H](Cc1ccc(O)cc1)C(=O)N[C@@H](CCCNC(=N)N)C(=O)N[C@H](C(=O)O)[C@@H](C)O)C(C)C` (H-CPASYFQCGNYNHCYPMEWRCDGFLDCVDGSDEKGCPYRT-OH), the IC50 in test [1] and in test [2] was ≤ 1 nM in each case.

With `CSCC[C@H](NC(=O)[C@@H]1CCCN1C(=O)[C@H](Cc1ccc(O)cc1)NC(=O)[C@H](CS)NC(=O)[C@H](Cc1cnc[nH]1)NC(=O)[C@H](CCCCN)NC(=O)[C@H](Cc1ccc(O)cc1)NC(=O)[C@H](CC(N)=O)NC(=O)CNC(=O)[C@H](CS)NC(=O)[C@H](CCC(N)=O)NC(=O)[C@H](Cc1ccccc1)NC(=O)[C@H](Cc1ccc(O)cc1)NC(=O)[C@H](CO)NC(=O)[C@H](C)NC(=O)[C@@H]1CCCN1C(=O)[C@@H](N)CS)C(=O)N[C@@H](CCC(=O)O)C(=O)N[C@@H](Cc1c[nH]c2ccccc12)C(=O)N[C@@H](Cc1cnc[nH]1)C(=O)N[C@@H](CS)C(=O)N[C@@H](CC(=O)O)C(=O)NCC(=O)N[C@@H](Cc1ccccc1)C(=O)N[C@@H](CCC(N)=O)C(=O)N[C@@H](CC(=O)O)C(=O)N[C@@H](CS)C(=O)N[C@H](C(=O)N[C@@H](CC(=O)O)C(=O)NCC(=O)N[C@@H](CO)C(=O)N[C@@H](CC(=O)O)C(=O)N[C@@H](CCC(=O)O)C(=O)N[C@@H](CCCCN)C(=O)N[C@@H](C)C(=O)N[C@@H](CS)C(=O)N1CCC[C@H]1C(=O)N[C@@H](Cc1ccc(O)cc1)C(=O)N[C@@H](CCCNC(=N)N)C(=O)N[C@H](C(=O)O)[C@@H](C)O)C(C)C` (H-CPASYFQCGNYKHCYPMEWHCDGFQDCVDGSDEKACPYRT-OH), the IC50 in test [1] and in test [2] was ≤ 1 nM throughout.

As for `CSCC[C@H](NC(=O)[C@H](Cc1ccccc1)NC(=O)[C@H](CCC(=O)O)NC(=O)[C@H](CC(N)=O)NC(=O)[C@H](CCCNC(=N)N)NC(=O)[C@@H]1CCCN1C(=O)[C@@H](N)CS)C(=O)N[C@@H](CS)C(=O)N[C@@H](C)C(=O)N[C@@H](CC(=O)O)C(=O)N[C@@H](CCCCN)C(=O)N[C@@H](CCSC)C(=O)N[C@@H](CS)C(=O)N[C@@H](Cc1ccccc1)C(=O)N1CCC[C@H]1C(=O)N[C@H](C(=O)N[C@@H](CO)C(=O)N[C@@H](Cc1ccccc1)C(=O)N[C@@H](CC(C)C)C(=O)N[C@@H](CS)C(=O)N[C@@H](CC(=O)O)C(=O)NCC(=O)N[C@@H](CCC(=O)O)C(=O)N[C@@H](CC(N)=O)C(=O)N[C@@H](CC(=O)O)C(=O)N[C@@H](CS)C(=O)N[C@@H](CCC(=O)O)C(=O)N[C@@H](CC(=O)O)C(=O)NCC(=O)N[C@@H](CO)C(=O)N[C@@H](CC(=O)O)C(=O)N[C@@H](CCC(=O)O)C(=O)N[C@@H](CC(=O)O)C(=O)N[C@@H](Cc1ccc(O)cc1)C(=O)N[C@@H](CS)C(=O)N1CCC[C@H]1C(=O)N[C@@H](CO)C(=O)N[C@@H](CCCNC(=N)N)C(=O)N[C@H](C(=O)O)[C@@H](C)O)C(C)C` (H-CPRNEFMCADKMCFPVSFLCDGENDCEDGSDEDYCPSRT-OH), the IC50 in test [1] and in test [2] was ≤ 1 nM each time.
